Data reported in patent US20050261290A1, “Novel compounds of proline and morpholine derivatives” (priority 2004, published 2005).
Where two headings read alike, the source gives them in different places.

Biological target: human 11b-hsd-1 (Homo sapiens, UniProt P28845)
Assay: Inhibition constant Ki of human 11b-hsd-1 (3H-cortisone to 3H-cortisol conversion, HPLC)
Assay type: biochemical
Settings: for Ki: apparent Ki, read-out: Ki app

Chain of human 11b-hsd-1 (P28845 whole entry): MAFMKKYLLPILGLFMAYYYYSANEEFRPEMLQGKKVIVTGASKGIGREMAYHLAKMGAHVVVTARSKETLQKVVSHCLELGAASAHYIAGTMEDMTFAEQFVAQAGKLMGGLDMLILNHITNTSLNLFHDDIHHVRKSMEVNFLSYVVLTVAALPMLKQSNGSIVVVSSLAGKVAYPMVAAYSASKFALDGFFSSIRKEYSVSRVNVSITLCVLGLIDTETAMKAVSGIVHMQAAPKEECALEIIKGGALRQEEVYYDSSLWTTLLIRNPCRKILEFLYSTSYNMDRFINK

Row | Structure (SMILES) | inhibition at 0.1 µM (0.1 μM compound) [%] | Ki [nM] | inhibition at 0.1 µM (compound at 0.1 μM) [%] | Ki (human 11b-hsd-1) [nM] | % inh @ 0.1 μM (compound at 0.1 μM, 0.1 µM) [%]
1 | N#Cc1ccc(CN2CCC[C@@H]2C(=O)NCC2CCCCC2)cc1 [Example 328] | 100 | 3.2 |  |  | 
2 | CC(C)CN1CCC[C@@H]1C(=O)NC12CC3CC(CC(C3)C1)C2 [Example 205] | 100 | 3.17 |  |  | 
3 | O=C(NC1C2CC3CC(C2)CC1C3)[C@H]1NCC[C@@H]1c1ccc(Cl)cc1 (stereo partly shown) [Example 367] | 93.5 | 7.5 |  |  | 
4 | CCN1[C@@H](C(=O)NC2CCCCC2)CCC1(C)C [Example 131] |  |  | 88 |  | 
5 | O=C(NC1C2CC3CC(C2)CC1C3)[C@H]1C[C@@H](O)CN1Cc1ccccc1 (stereo partly shown) [Example 26] |  |  | 100 | 1 | 
6 | CN1CCC(CN2C[C@H](O)C[C@@H]2C(=O)NC2C3CC4CC(C3)CC2C4)CC1 (stereo partly drawn) [Example 47, (4R)-N-2-adamantyl-4-hydroxy-1-[(1-methylpiperidin-4-yl)methyl]-D prolinamide] |  |  | 38 |  | 
7 | C[C@@H](NC(=O)[C@H]1COCCN1CC1CCCC1)c1ccccc1 [Example 309] | 86.1 | 32 |  |  | 
8 | CC1(C)CC(NC(=O)C2COCCN2CC2CCCCC2)CC(C)(C)C1 (stereo not shown) [Example 188] |  |  | 100 | 1.7 | 
9 | CS(=O)(=O)N1CCC(CN2CCC[C@@H]2C(=O)NC2C3CC4CC(C3)CC2C4)CC1 (stereo partly shown) [Example 140] |  |  | 100 |  | 
10 | CS(=O)(=O)NCCN1CCC[C@@H]1C(=O)NC1C2CC3CC(C2)CC1C3 (stereo partly shown) [Example 130, 1-(2-Methanesulfonylamino-ethyl)pyrrolidine-2-carboxylic acid adamantan-2-ylamide] |  |  | 56 |  | 
11 | O=C(NC12CC3CC(CC(C3)C1)C2)[C@H]1CCCN1Cc1ccccc1 [Example 248] | 100 | 1.3 |  |  | 
12 | CC(=O)N1CCC(CN2CCC[C@@H]2C(=O)NC2C3CC4CC(C3)CC2C4)CC1 (stereo partly shown) [Example 139] |  |  | 100 |  | 
13 | CC(C)(O)CN1CCC[C@@H]1C(=O)NC1CCCCC1 [Example 87, 1-(2-Hydroxy-2-methyl-propyl)-pyrrolidine-2-carboxylic acid cyclohexylamide] |  |  | 54 |  | 
14 | CN(Cc1ccccc1)C(=O)[C@H]1COCCN1Cc1ccccc1 [Example 272] | 71.7 | 1 |  |  | 
15 | CC(C)CN1CSC[C@@H]1C(=O)N(C)C1CCCCC1 [Example 196] | 85.3 | 27 |  |  | 
16 | Cc1ccccc1O[C@@H]1CN[C@H](C(=O)NC2C3CC4CC(C3)CC2C4)C1 (stereo partly shown) [Example 320] | 100 | 5.5 |  |  | 
17 | O=C(NCc1ccccc1Cl)[C@H]1CCCN1CCc1ccccc1 [Example 271] | 83.8 | 26 |  |  | 
18 | N#Cc1ccc(CN2CCC[C@@H]2C(=O)NCc2ccccc2)cc1 [Example 323] | 69.7 | 110 |  |  | 
19 | CCOc1ccccc1CNC(=O)[C@H]1COCCN1CC(C)C [Example 35] |  |  | 82 | 22.6 | 
20 | CCCN1CCC[C@@H]1C(=O)NC1Cc2ccccc2C1 [Example 38] |  |  | 90.4 | 7.9 | 
21 | CC(C)CN1CCC[C@@H]1C(=O)NCc1ccc(F)cc1F [Example 238] | 88.4 | 16.3 |  |  | 
22 | CC(C)CN1CCC[C@@H]1C(=O)NCC1(O)CCCCC1 [Example 69] |  |  | 100 | 7 | 
23 | CCCN1CCC[C@@H]1C(=O)NC1CCCCC1 [Example 85] |  |  | 94 | 9 | 
24 | O=C(NC1CCCCC1)[C@H]1CCCN1CC1CCCO1 (stereo partly shown) [Example 98] |  |  |  |  | 41

Row | Structure (SMILES) | inhibition at 0.1 µM (0.1 μM compound) [%] | Ki [nM] | inhibition at 0.1 µM (compound at 0.1 μM) [%] | Ki (human 11b-hsd-1) [nM] | % inh @ 0.1 μM (compound at 0.1 μM, 0.1 µM) [%]
25 | Cc1ccccc1CNC(=O)[C@H]1CCCN1Cc1ccccc1 [Example 246] | 87.7 | 16 |  |  | 
26 | O=C(NCc1ccc(F)cc1)[C@H]1COCCN1Cc1ccccc1 [Example 274] | 78.4 | 2.6 |  |  | 
27 | N#Cc1cccc(CN2CCC[C@@H]2C(=O)NC23CC4CC(CC(C4)C2)C3)c1 [Example 249] | 100 | 1 |  |  | 
28 | CC(C)CN1CCOC[C@@H]1C(=O)NC1CCCCC1 [Example 332] | 100 | 2.2 |  |  | 
29 | Cc1cc(C)cc(O[C@@H]2CN[C@H](C(=O)NC3C4CC5CC(C4)CC3C5)C2)c1 (stereo partly shown) [Example 347] | 96.6 | 3.3 |  |  | 
30 | CCCN1CCCC1(C)C(=O)NC1CCCCC1 (stereo not shown) [Example 60] |  |  | 79 | 25 | 
31 | O=C(NC1C2CC3CC(C2)CC1C3)[C@@H]1C[C@H](Oc2ccc(F)c(F)c2F)CN1 (stereo partly shown) [Example 355] | 100 | 1 |  |  | 
32 | O=C(NCc1ccc(F)cc1)[C@H]1CCCN1CCC(F)(F)F [Example 324] | 69.2 | 69 |  |  | 
33 | O=C(NC1CCCCC1)[C@H]1COCCN1Cc1ccccc1 [Example 302] | 99.1 | 3.2 |  |  | 
34 | O=C(NC1CCCCC1)[C@H]1CCCN1CC1CCOCC1 [Example 99] |  |  | 91 | 8 | 
35 | CC(C)CN1CCOC[C@@H]1C(=O)N[C@@H]1CCc2ccccc21 [Example 308] | 97.7 | 5.71 |  |  | 
36 | O=C(NC12CC3CC(CC(C3)C1)C2)[C@H]1CCCN1CC(F)(F)F [Example 22] |  |  | 100 | 0.85 | 
37 | CC12C3C4C1C1C2C3C41NC(=O)[C@H]1CCCN1 (stereo partly shown) [Example 143] |  |  | 10 |  | 
38 | O=C(NC1C2CC3CC(C2)CC1C3)[C@H]1CCCNC1 (stereo partly shown) [Example 121, Piperidine-3-carboxylic acid adamantan-2-ylamide] |  |  | 17 |  | 
39 | CC1(C)CC(NC(=O)C2COCCN2Cc2ccccc2)CC(C)(C)C1 (stereo not shown) [Example 186] |  |  | 100 | 1 | 
40 | CC(C)CN1CCC(CN2CCOC[C@@H]2C(=O)NC2C3CC4CC(C3)CC2C4)CC1 (stereo partly shown) [Example 74] |  |  | 90 |  | 
41 | CC(C)CN1CSC[C@@H]1C(=O)NC12CC3CC(CC(C3)C1)C2 [Example 208] | 100 | 1 |  |  | 
42 | CC(C)CN1CCC[C@@H]1C(=O)NCc1ccccc1 [Example 4] |  |  | 94 | 3.6 | 
43 | O=C(N[C@@H]1CCc2ccccc21)[C@H]1CCCN1Cc1ccccc1 [Example 283] | 100 | 5.6 |  |  | 
44 | COc1cccc(CNC(=O)[C@H]2CCCN2CC(C)C)c1 [Example 260] | 89.6 | 16 |  |  | 
45 | CS(=O)(=O)N1CCC[C@H]1CN1CCC[C@@H]1C(=O)NC1C2CC3CC(C2)CC1C3 (stereo partly shown) [Example 135] |  |  | 100 |  | 
46 | CCC1CCCCN1C(=O)C1CCCCN1Cc1ccc(Cl)cc1 (stereo not shown) [Example 199] | 80.2 | 32 |  |  | 
47 | O=C(N[C@@H]1CCc2ccccc21)[C@H]1COCCN1Cc1ccccc1 [Example 304] | 59.4 | 3.6 |  |  | 
48 | O=C(NC1C2CC3CC(C2)CC1C3)[C@@H]1C[C@H](Oc2ccccc2)CN1 (stereo partly shown) [Example 338] | 100 | 1 |  |  | 

Row | Structure (SMILES) | inhibition at 0.1 µM (0.1 μM compound) [%] | Ki [nM] | inhibition at 0.1 µM (compound at 0.1 μM) [%] | Ki (human 11b-hsd-1) [nM] | % inh @ 0.1 μM (compound at 0.1 μM, 0.1 µM) [%]
49 | O=C(NC12CC3CC(CC(C3)C1)C2)[C@@H]1[C@H]2CC[C@H](C2)N1Cc1ccc(Cl)cc1 (racemic) [Example 204] | 100 | 1 |  |  | 
50 | CN(C)CCN1C[C@H](O)C[C@@H]1C(=O)NC1C2CC3CC(C2)CC1C3 (stereo partly shown) [Example 43] |  |  | 31.9 |  | 
51 | O=C(NCc1ccc(F)cc1)[C@H]1CCCN1CC1CC1 [Example 225] | 86.2 | 153 |  |  | 
52 | CC(C)CN1CCOC[C@@H]1C(=O)NCc1ccccc1 [Example 278] | 76 | 49.2 |  |  | 
53 | O=C(NC12CC3CC(CC(C3)C1)C2)C1COCCN1Cc1ccccc1 (stereo not shown) [Example 178] |  |  | 100 | 1 | 
54 | CCCN1CCC[C@@H]1C(=O)N[C@@H]1C[C@H]2CC[C@@H]1C2 [Example 89] |  |  | 92 |  | 
55 | CCCN1CCC[C@@H]1C(=O)N[C@@H]1CCCc2ccccc21 [Example 56] |  |  | 92 | 8 | 
56 | CCCN1CCC[C@@H]1C(=O)NC1CCC(F)(F)CC1 [Example 137] |  |  | 87 |  | 
57 | CC(C)OCCN1CCC[C@@H]1C(=O)NC1CCCCC1 [Example 96] |  |  | 84 | 39 | 
58 | Cc1ccccc1CNC(=O)[C@H]1CCCN1Cc1ccc(Cl)cc1 [Example 268] | 100 | 10 |  |  | 
59 | Cc1ccc(CNC(=O)[C@H]2CCCN2CCC(F)(F)F)cc1 [Example 326] | 69.4 | 69 |  |  | 
60 | O=C(NC12CC3CC(CC(C3)C1)C2)[C@H]1[C@H]2CC[C@H](C2)N1Cc1ccc(Cl)cc1 (relative stereo) [Example 203] | 100 | 1 |  |  | 
61 | O=C(NCC1(O)CCCCCC1)[C@H]1CCCN1CC1CCCC1 [Example 68] |  |  | 93.5 | 2 | 
62 | O=C(NCc1ccccc1)C1COCCN1CC1CCCCC1 (stereo not shown) [Example 322] | 62.5 | 45 |  |  | 
63 | Cc1ccc(O[C@@H]2CN[C@H](C(=O)NC3C4CC5CC(C4)CC3C5)C2)cn1 (stereo partly shown) [Example 343] | 98.6 | 6.3 |  |  | 
64 | CN(C(=O)[C@H]1COCCN1Cc1ccccc1)C1CCCCC1 [Example 303] | 50 | 4.4 |  |  | 
65 | O=C(NCc1c(F)cccc1F)[C@H]1COCCN1Cc1ccccc1 [Example 327] | 68.9 | 110 |  |  | 
66 | O=C(NC1C2CC3CC(C2)CC1C3)[C@H]1NCC[C@@H]1Cc1ccc(F)cc1 (stereo partly shown) [Example 368] | 96.4 | 6.8 |  |  | 
67 | Cc1ccccc1CNC(=O)[C@H]1CCCN1CC(C)C [Example 256] | 100 | 7 |  |  | 
68 | CC(C)CN1CCC[C@@H]1C(=O)NCc1cccc(Cl)c1 [Example 223] | 86.3 | 26 |  |  | 
69 | CC(C)(C)OC(=O)N1CCC[C@H]1CN1CCC[C@@H]1C(=O)NC1C2CC3CC(C2)CC1C3 (stereo partly shown) [Example 112] |  |  | 81 |  | 
70 | N#Cc1ccc(CN2CCC[C@@H]2C(=O)NC2CCCCC2)cc1 [Example 52] |  |  | 100 | 4.6 | 
71 | O=C(NC1C2CC3CC(C2)CC1C3)[C@H]1COCCN1CCO (stereo partly shown) [Example 66] |  |  | 89 | 10 | 
